In US20250320213A1, “Nitrogen-Containing Heterocyclic Compounds” (Pfizer Inc., priority 2024, published 2025):
Structures can show the parent of a compound that is named as a salt. Where two headings read alike, the source gives them in different places.

How the values were obtained:
STAT6 = molecular target: T1, STAT6 (Homo sapiens, UniProt P42226); experiment: STAT6 Reporter Luciferase Assay (IL-13 stimulated HaCaT keratinocyte NanoLuc reporter cells); type: cell-based; conditions: read-out: Reporter EC50
T1 construct: stably transfected HaCaT keratinocyte cell line, which expresses NanoLuc luciferase reporter gene under the transcriptional control of the STAT6 responsive promoter; endogenous in cells; host or cells: HaCaT keratinocyte reporter cell line (stably transfected with a NanoLuc reporter)
T1 sequence (P42226 1-847): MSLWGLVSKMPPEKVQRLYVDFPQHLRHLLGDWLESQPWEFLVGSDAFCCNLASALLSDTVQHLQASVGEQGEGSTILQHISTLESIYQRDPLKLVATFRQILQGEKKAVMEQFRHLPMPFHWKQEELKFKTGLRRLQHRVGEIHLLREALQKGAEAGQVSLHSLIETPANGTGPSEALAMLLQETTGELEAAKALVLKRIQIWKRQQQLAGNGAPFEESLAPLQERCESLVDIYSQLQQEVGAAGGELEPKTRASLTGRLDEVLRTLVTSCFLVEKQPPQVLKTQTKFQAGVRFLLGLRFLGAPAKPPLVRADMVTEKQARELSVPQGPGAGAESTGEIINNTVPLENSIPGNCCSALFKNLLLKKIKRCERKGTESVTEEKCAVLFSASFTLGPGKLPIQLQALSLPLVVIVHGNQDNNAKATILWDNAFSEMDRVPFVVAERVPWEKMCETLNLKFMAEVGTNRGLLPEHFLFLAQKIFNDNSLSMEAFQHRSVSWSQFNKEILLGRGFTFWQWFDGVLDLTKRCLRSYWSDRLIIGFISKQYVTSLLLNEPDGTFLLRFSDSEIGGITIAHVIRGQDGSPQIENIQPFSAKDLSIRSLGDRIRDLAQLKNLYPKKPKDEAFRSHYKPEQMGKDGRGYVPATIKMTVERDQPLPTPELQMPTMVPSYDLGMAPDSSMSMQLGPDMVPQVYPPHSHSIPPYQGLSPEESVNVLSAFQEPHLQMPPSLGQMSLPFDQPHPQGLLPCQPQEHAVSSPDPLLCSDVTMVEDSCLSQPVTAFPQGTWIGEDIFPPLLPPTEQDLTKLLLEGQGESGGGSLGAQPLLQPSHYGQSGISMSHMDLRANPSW
How it was run: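 Compounds were tested as 11-point, 4-fold series in duplicate, applied for 2 h at 37 °C in low-serum (2% FBS) DMEM. The cells were a stable HaCaT line with NanoLuc under a STAT6-responsive IL-13Ra2 promoter. After 4 h with 0.12 nM IL-13, Nano-Glo luminescence was measured.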

[1] = tested on: CCL17 secretion in peripheral human whole blood; experiment: Human Whole Blood (HWB) CCL17 TR-FRET Assay (IL-13 stimulated CCL17 secretion); type: cell-based
Protocol: The IC50 (half-maximal concentration required for inhibition) of compounds for the inhibition of CCL17 secretion in peripheral human whole blood, stimulated through the IL-13-IL-13 receptor/IL-4 receptor pathway was evaluated with a TR-FRET sandwich ELISA CCL17 (TARC) Assay Kit (Bioauxilium).
Test compounds (solubilized and serially diluted in DMSO, in an 11 point, 3-fold dilution series in duplicate) were spotted, 80 nL per well, into a 384 well v-bottom polypropylene plate. Human whole blood was collected from a peripheral vein, 714 units of sodium heparin was added for every 50 mL of blood collected. Sixty μL per well of blood was added to the compound plate. The blood plate was incubated for two hours at 37° C. After two hours, CCL17 production was stimulated with the addition of 20 μL per well of IL13 (R&D Systems) in HBSS with calcium and magnesium, with a final concentration of 10 ng/mL IL13. The plate containing blood, compound, and IL-13 was incubated at 37° C. for 48 hours, to allow for CCL17 production. After 48 hours, the plate was centrifuged at 1,500 revolutions per minute (RPM) for 7 minutes, with no braking. The CCL17 TR-FRET Assay Kit detection reagent was prepared according to kit instructions and 4 μL per well of the antibody cocktail was added to a 384-well white low volume non-binding coated plate (Corning). Sixteen μL of serum from the centrifuged blood plate was transferred to the detection plate containing the TR-FRET antibody cocktail. The plate was centrifuged briefly, then covered and incubated 16 hours at room temperature. The plate was then read on an EnVision 2105 multilabel reader (PerkinElmer) with settings for TR-FRET Ratio=10,000×(fluorescence intensity 665 nm/fluorescence intensity 615 nm).

[2] = IL-13 stimulated HaCaT STAT6 NanoLuc reporter cells
[3] = Homo sapiens, 48 h, human whole blood, IL-13 stimulated
[4] = STAT6 NanoLuc luciferase reporter, IL-13 stimulated HaCaT keratinocyte cells
[5] = inhibition of CCL17 secretion in human whole blood, 10 ng/mL IL13, 48 hours
[6] = Homo sapiens, 48 h, inhibition of CCL17 secretion in human whole blood, 10 ng/mL IL13, 48 hours

Row | Compound | EC50 (STAT6; [4]) | IC50 [1, 6] | further results
1 | CC(n1nc(C(=O)NCc2ccc(NC(=O)N(C)C)cc2)c2c1[C@@H](C)CN(c1ccc(C(=O)N(C)C)cn1)C2)C(F)(F)F (mixture of isomers) [Example 262, (S)-5-(5-(dimethylcarbamoyl)pyridin-2-yl)-N-(4-(3,3-dimethylureido)benzyl)-7-methyl-1-((RS)-1,1,1-trifluoropropan-2-yl)-4,5,6,7-tetrahydro-1H-pyrazolo[4,3-c]pyridine-3-carboxamide] |  |  | EC50 (STAT6; [2]): 1 nM; IC50 [1, 3]: 6 nM
2 | COCC(C)n1nc(C(=O)NCc2ccc(NC(=O)N(C)C)cc2)c2c1[C@@H](C)CN(c1ccc(C(=O)N(C)C)cn1)C2 (mixture of isomers) [Example 344, (S)-5-(5-(dimethylcarbamoyl)pyridin-2-yl)-N-(4-(3,3-dimethylureido)benzyl)-1-((RS)-1-methoxypropan-2-yl)-7-methyl-4,5,6,7-tetrahydro-1H-pyrazolo[4,3-c]pyridine-3-carboxamide] |  |  | EC50 (STAT6; [2]): 1 nM; IC50 [1, 3]: 8 nM
3 | CC(n1nc(C(=O)NCc2ccc(NC(=O)N(C)C)cc2)c2c1[C@H](C)CN(c1ccc(C(=O)N(C)C)cn1)C2)C(F)(F)F (mixture of isomers) [Example 553, (R)-5-(5-(dimethylcarbamoyl)pyridin-2-yl)-N-(4-(3,3-dimethylureido)benzyl)-7-methyl-1-((RS)-1,1,1-trifluoropropan-2-yl)-4,5,6,7-tetrahydro-1H-pyrazolo[4,3-c]pyridine-3-carboxamide] |  |  | EC50 (STAT6; [2]): 4 nM; IC50 ([1]; Homo sapiens, 48 h, human whole blood, 10 ng/mL IL13, 48 hours): 18 nM
4 | CC(C)n1nc(C(=O)NCc2ccc(NC(=O)N3C[C@H]4CC[C@@H](C3)N4)c(F)c2)c2c1[C@@H](C)CN(c1ccc(C(=O)N(C)C)cc1)C2 (mixture of isomers) [Example 573, (S)-N-(4-((1RS,5SR)-3,8-diazabicyclo[3.2.1]octane-3-carboxamido)-3-fluorobenzyl)-5-(4-(dimethylcarbamoyl)phenyl)-1-isopropyl-7-methyl-4,5,6,7-tetrahydro-1H-pyrazolo[4,3-c]pyridine-3-carboxamide] |  |  | EC50 (STAT6; [2]): 1 nM; IC50 ([1]; human whole blood, 10 ng/mL IL13, 48 hours): 11 nM
5 | CC1CN(c2ccc(C(=O)N(C)C)cn2)Cc2c(C(=O)NCc3ccc(NC(=O)N(C)C)cc3)nn(C)c21 (racemic) [Example 6, rac-(R)-5-(5-(Dimethylcarbamoyl)pyridin-2-yl)-N-(4-(3,3-dimethylureido)benzyl)-1,7-dimethyl-4,5,6,7-tetrahydro-1H-pyrazolo[4,3-c]pyridine-3-carboxamide] | 4 nM |  | IC50 [1, 5]: 25 nM
6 | Cc1nc(C(=O)NCc2ccc(NC(=O)N(C)C)cc2)c2n1C(C)CN(c1ccc(C(=O)N(C)C)cn1)C2 (racemic) [Example 9, rac-(R)-7-(5-(Dimethylcarbamoyl)pyridin-2-yl)-N-(4-(3,3-dimethylureido)benzyl)-3,5-dimethyl-5,6,7,8-tetrahydroimidazo[1,5-a]pyrazine-1-carboxamide formate] | 15 nM |  | IC50 [1, 5]: 27 nM
7 | CN(C)C(=O)Nc1ccc(CNC(=O)c2nn(C)c3c2CC(c2ccc(C(=O)N(C)C)cc2)CC3)cc1 (racemic) [Example 26, rac-(R)-5-(4-(Dimethylcarbamoyl)phenyl)-N-(4-(3,3-dimethylureido)benzyl)-1-methyl-4,5,6,7-tetrahydro-1H-indazole-3-carboxamide] | 69 nM | 561 nM | 
8 | CC1Cc2c(c(C(=O)NCc3ccc(NC(=O)N(C)C)cc3)nn2C)CN1c1ccc(C(=O)N(C)C)cn1 (racemic) [Example 49, rac-(R)-5-(5-(dimethylcarbamoyl)pyridin-2-yl)-N-(4-(3,3-dimethylureido)benzyl)-1,6-dimethyl-4,5,6,7-tetrahydro-1H-pyrazolo[4,3-c]pyridine-3-carboxamide] | 9 nM | 39 nM | 
9 | CC1c2c(C(=O)NCc3ccc(NC(=O)N(C)C)cc3)nn(C)c2CCN1c1ccc(C(=O)N(C)C)cn1 (racemic) [Example 55, rac-(R)-5-(5-(dimethylcarbamoyl)pyridin-2-yl)-N-(4-(3,3-dimethylureido)benzyl)-1,4-dimethyl-4,5,6,7-tetrahydro-1H-pyrazolo[4,3-c]pyridine-3-carboxamide] | 10 nM | 12 nM | 
10 | CN(C)C(=O)Nc1ccc(CNC(=O)c2nn(C)c3c2[C@H]2CCC[C@@H](C3)N2c2ccc(C(=O)N(C)C)cn2)cc1 (racemic) [Example 68, rac-(4R,8S)-10-(5-(dimethylcarbamoyl)pyridin-2-yl)-N-(4-(3,3-dimethylureido)benzyl)-1-methyl-4,5,6,7,8,9-hexahydro-1H-4,8-epiminocycloocta[c]pyrazole-3-carboxamide] | 9 nM |  | IC50 [1, 5]: 43 nM
11 | CN(C)C(=O)Nc1ccc(CNC(=O)c2nn(C)c3c2[C@@H]2COC[C@H](C3)N2c2ccc(C(=O)N(C)C)cn2)cc1 (racemic) [Example 72, rac-(4R,8S)-10-(5-(dimethylcarbamoyl)pyridin-2-yl)-N-(4-(3,3-dimethylureido)benzyl)-1-methyl-1,4,5,7,8,9-hexahydro-4,8-epiminooxocino[5,4-c]pyrazole-3-carboxamide] | 308 nM | 1100 nM | 

Continued, in another order:

Row | EC50 (STAT6; [4]) | IC50 [1, 6] | Compound | further results
12 | 98 nM | 182 nM | CCC1CN(c2ccc(C(=O)N(C)C)cn2)Cc2c(C(=O)NCc3ccc(NC(=O)N(C)C)cc3)n[nH]c21 (racemic) [Example 57, rac-(R)-5-(5-(dimethylcarbamoyl)pyridin-2-yl)-N-(4-(3,3-dimethylureido)benzyl)-7-ethyl-4,5,6,7-tetrahydro-1H-pyrazolo[4,3-c]pyridine-3-carboxamide] | 
13 | 3 nM | 27 nM | CC1CN(c2ccc(-c3nccn3C)cn2)Cc2c(C(=O)NCc3ccc(NC(=O)N(C)C)cc3)nn(C)c21 (racemic) [Example 59, rac-(R)-N-(4-(3,3-dimethylureido)benzyl)-1,7-dimethyl-5-(5-(1-methyl-1H-imidazol-2-yl)pyridin-2-yl)-4,5,6,7-tetrahydro-1H-pyrazolo[4,3-c]pyridine-3-carboxamide] | 
14 | 9 nM | 66 nM | CC(C1CC1)n1nc(C(=O)NCc2ccc(NC(=O)N(C)C)cc2)c2c1CCN(c1ccc(C(=O)N(C)C)cn1)C2 (racemic) [Example 62, rac-(R)-1-(1-cyclopropylethyl)-5-(5-(dimethylcarbamoyl)pyridin-2-yl)-N-(4-(3,3-dimethylureido)benzyl)-4,5,6,7-tetrahydro-1H-pyrazolo[4,3-c]pyridine-3-carboxamide] | 
15 | 2 nM | 14 nM | CCn1nc(C(=O)NCc2ccc(NC(=O)N(C)C)cc2)c2c1C(C)CN(c1ccc(C(=O)N(C)C)cn1)C2 (racemic) [Example 71, rac-(R)-5-(5-(dimethylcarbamoyl)pyridin-2-yl)-N-(4-(3,3-dimethylureido)benzyl)-1-ethyl-7-methyl-4,5,6,7-tetrahydro-1H-pyrazolo[4,3-c]pyridine-3-carboxamide] | 
